1 compound from patent US7342017B2, “1,2,5-Thiadiazol-3-yl-piperazine therapeutic agents useful for treating pain, depression and anxiety” (Euro-Celtique S.A., priority 2002, dated 2008) can be followed below.

The target of assay [1] is T1, Human VR1 Receptor (Homo sapiens, UniProt Q8NER1). Briefly: Inhibition of pH-induced activation of VR1. The format is cell-based. The note with it: mean ± spread, (n) = number of experiments, read-out: Inhibition of pH-induced activation IC50 (nM) Mean IC50 ± SEC (n). An excerpt:
(§1) Binding of the Thiadiazolylpiperazine Compounds to the Human VR1 Receptor
(§2) Methods for assaying compounds capable of inhibiting VR1 are well known to those skilled in the art, for example, those methods disclosed in U.S. Pat. No. 6,239,267 to Duckworth et al.; U.S. Pat. No. 6,406,908 to McIntyre et al.; or U.S. Pat. No. 6,335,180 to Julius et al.

Assay [2] addresses T1, Human VR1 Receptor. Briefly: Inhibition of capsaicin-induced activation of VR1. The format is cell-based. The conditions noted are these: mean ± spread, (n) = number of experiments, read-out: Inhibition of capsaicin-induced activation IC50 (nM) Mean IC50 ± SEC (n).
From the text: as §1, §2

T1 sequence (Q8NER1 whole entry): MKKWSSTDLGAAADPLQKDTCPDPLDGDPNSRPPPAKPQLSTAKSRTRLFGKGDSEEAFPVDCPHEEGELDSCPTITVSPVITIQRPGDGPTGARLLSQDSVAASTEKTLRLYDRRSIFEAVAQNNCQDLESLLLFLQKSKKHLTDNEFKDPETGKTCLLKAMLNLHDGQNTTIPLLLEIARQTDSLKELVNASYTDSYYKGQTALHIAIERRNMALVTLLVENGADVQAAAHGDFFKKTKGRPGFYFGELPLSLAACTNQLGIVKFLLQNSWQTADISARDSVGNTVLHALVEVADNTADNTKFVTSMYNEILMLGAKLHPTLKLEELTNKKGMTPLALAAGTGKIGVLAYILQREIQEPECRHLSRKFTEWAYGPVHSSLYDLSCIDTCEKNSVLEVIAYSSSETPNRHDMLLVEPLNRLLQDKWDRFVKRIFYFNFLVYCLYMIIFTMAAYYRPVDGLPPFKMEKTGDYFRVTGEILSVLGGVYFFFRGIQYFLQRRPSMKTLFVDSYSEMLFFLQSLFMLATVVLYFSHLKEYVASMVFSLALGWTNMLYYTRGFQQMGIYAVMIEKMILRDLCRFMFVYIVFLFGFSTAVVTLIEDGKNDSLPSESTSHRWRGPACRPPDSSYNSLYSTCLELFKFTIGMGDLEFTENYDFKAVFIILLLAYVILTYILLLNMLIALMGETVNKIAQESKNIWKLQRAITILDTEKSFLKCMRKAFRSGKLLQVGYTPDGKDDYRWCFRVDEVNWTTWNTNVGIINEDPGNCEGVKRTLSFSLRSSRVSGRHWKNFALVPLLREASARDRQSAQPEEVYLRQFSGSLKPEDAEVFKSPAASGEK

As a reminder, the IC50 is the concentration that inhibits the measured activity by half. Turning to `CC(C)c1ccc(NC(=O)N2CCN(c3nsnc3Cl)CC2)cc1`, the IC50 in assay [1] amounted to 668 ± 265 nM; in assay [2], 374 ± 233 nM.
